Structures are written as SMILES.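 Method: 48-hour compound exposure of cells in 96-well plates, five concentrations, linear interpolation of endpoints. GI50 = concentration required for 50% inhibition of growth. The concentration for full growth arrest is given as TGI.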 Active and inactive are the calls of the source. Cut-off read from the data, not from the text of the source: active = GI50 below about 0.43 µM; inactive = the rest. Bounds are passed on as bounds.

The test relates to MDA-MB-468 breast. The test can be described thus: NCI-60 cell line screen, 48 h.
Turning to `Cc1cccc(NC(=O)c2sc3nc4c(cc3c2N)CCC4)c1C`, the GI50 is 196 nM and the TGI came out at 685 nM.

Consider `COc1ccc(/C=C2\CN(Cc3cn(CCCNc4ccnc5cc(Cl)ccc45)nn3)C/C(=C\c3ccc(OC)cc3)C2=O)cc1`, for which the GI50 is 11900 nM and the TGI is 26200 nM.

Take `CC1SC(c2cccc(Oc3ccccc3)c2)N(CCc2cccs2)C1=O` (stereo unspecified): the GI50 was 745 nM and the TGI is 2910 nM.

For the molecule `C=CC(=O)N1CC[C@@H](Oc2nc(Nc3ccc(N4CCC(N5CCN(C)CC5)CC4)cc3)c(C(N)=O)nc2CC)C1`, the GI50 is > 100000 nM and the TGI is > 100000 nM.

As for `CCN(CC)CCCC(C)NC(=S)N/N=C(\C)c1ccccn1` (stereo unspecified), the GI50 is 1890 nM and the TGI came to 5650 nM.

With `Cn1c([N+](=O)[O-])cnc1/C=C1\Oc2ccc(Cl)cc2C1=O`, the GI50 was 1920 nM and the TGI is 4790 nM.

As for `COc1ccc(/C(C)=C(\c2ccc(Cl)cc2)c2ccc(OCCN3CCCCC3)cc2)cc1F`, the GI50 is 2490 nM and the TGI worked out at 5620 nM.

Turning to `CCS(=O)(=O)Nc1ccc(Oc2ccc(F)cc2F)c(-c2cn(C)c(=O)c3[nH]ccc23)c1`, the GI50 is 51.2 nM and the TGI was found to be 5010 nM.

Regarding `Cc1cc(F)cc(NS(=O)(=O)c2ccc(-c3cnc(C4CC4)o3)cc2)c1`, the GI50 is 79 nM and the TGI is 2420 nM.

Consider `Cn1cc(C2=C(c3cn(CCCSC(=N)N)c4ccccc34)C(=O)NC2=O)c2ccccc21`, for which the GI50 is 569 nM and the TGI worked out at 1900 nM.

As to `CC(=O)OC1C(OC/C2=C/C3[C@@H](C(C)C)CC=C(C)[C@@H]3CC(OC(=O)/C=C/c3cn(C)cn3)[C@]3(C)C=C[C@@]2(O)O3)OCC(O)C1O` (stereo partly specified), the GI50 is 10.8 nM and the TGI was found to be 98.8 nM.

`Oc1c(Br)cc(Br)c2cccnc12`: the GI50 is 2430 nM and the TGI was determined as 7530 nM.

For the molecule `Cc1cc(N2CCOCC2)nc(N(CCNc2ccnc3cc(Cl)ccc23)Cc2cccs2)n1`, the GI50 is 2110 nM and the TGI was 5080 nM.

Turning to `Oc1ccc(-c2nc(-c3ccc4oc5ccc(-c6[nH]c(-c7ccc(O)cc7)nc6-c6ccccc6)cc5c4c3)c(-c3ccccc3)[nH]2)cc1`, the GI50 was 6650 nM and the TGI is 88500 nM.

In the case of `COC(=O)[C@@H](C)C[C@H](Cc1ccccc1)NC(=O)c1cccc([C@@H](C[C@H](C(C)C)N(C)C(=O)[C@@H](NC(=O)[C@H]2CCCCN2C)C(C)C)OC(C)=O)n1`, the GI50 is < 1.67 nM and the TGI turned out to be 143 nM.

In the case of `COc1ccc(C2CC(c3ccc(OC)c(OC)c3)=NN2C(=O)c2cc(OC)c(OC)c(OC)c2)cc1` (stereo unspecified), the GI50 was 575 nM and the TGI is 5210 nM.

Regarding `CCOC(=O)C(Cc1ccc(N(CCCl)CCCl)cc1)NC(=O)C(CC(C)C)NC(C)=O` (stereo unspecified), the GI50 is 426 nM and the TGI is 2180 nM.

Turning to `O=C1/C(=C/c2ccc([N+](=O)[O-])s2)Oc2ccc(Cl)cc21`, the GI50 is 440 nM and the TGI was found to be 1560 nM.

As to `CCC(CC)N1C(=O)/C(=c2\sc3n(c2=O)C2C(NN=3)N(CC)C(=O)N2CC)c2ccccc21` (stereo unspecified), the GI50 is 489 nM and the TGI was found to be 27000 nM.

Take `CCN(CC)CCC(CNc1c2ccc(Cl)cc2nc2ccc(OC)cc12)c1ccccc1` (stereo unspecified): the GI50 is 1570 nM and the TGI was 3010 nM.

`COc1c(C)cnc(Cn2cnc3c(Cl)nc(N)nc32)c1C`: the GI50 is 169 nM and the TGI came out at 1530 nM.

For `COc1cc(C2C3=C(COC3=O)N(CCO)c3cc4c(cc32)CCC4)cc(OC)c1OC` (stereo unspecified), the GI50 was 61.7 nM and the TGI amounted to 151 nM.

`O=C(/C=C\c1ccc(Cl)c(Cl)c1)c1ccccc1`: the GI50 is 14300 nM and the TGI amounted to 36900 nM.

On to `CC(CCC/C=C/CCCN(C)C(=N)N)CC(C)C1OC(=O)C(C)C(O)/C=C/C(C)C(O)C(C)C(O)C(C)C(O)CCCC(O)CC2(O)OC(CC(OC(=O)CC(=O)O)CC(O)CC(O)C(C)C(O)/C=C/C=C/C1C)CC(O)C2O` (stereo unspecified), for which the GI50 is 1770 nM, the TGI was 3290 nM and the outcome was inactive.

Take `N#CC1=C(N)Oc2c(ccc3ccccc23)C1c1ccccc1Cl` (stereo unspecified): the GI50 was 466 nM and the TGI is 20700 nM.

As for `Cn1cnc2nc(Cl)nc(Cl)c21`, the GI50 was 3680 nM and the TGI was found to be 18700 nM.

In the case of `CCCCCCn1c(=N)n(CC(O)COc2cccc(C)c2)c2ccccc21` (stereo unspecified), the GI50 was 1710 nM and the TGI was determined as 3540 nM.

`CNCc1ccc(C)c(NC(=O)c2ccc(Nc3nc(-c4ccccc4)c4ccccc4n3)cc2)c1`: the GI50 is 1610 nM and the TGI was 3130 nM.

On to `CN1CCN(Cc2ccc(NC(=O)c3cncc(C#Cc4c(N)ncc5ccc(F)cc45)c3)cc2C(F)(F)F)CC1`, for which the GI50 is 4190 nM and the TGI was 12300 nM.

Turning to `C#Cc1cccc(NC(=O)Nc2cccc(NC(=O)CCl)c2)c1`, the GI50 is 19400 nM and the TGI came out at 78700 nM.

As to `CCCCc1ccc(C(N)=O)nc1`, the GI50 was > 100000 nM and the TGI is > 100000 nM.

Regarding `CCOC(=O)c1ccccc1NC(c1ccccc1)c1ccc2cccnc2c1O` (stereo unspecified), the GI50 is 2450 nM and the TGI amounted to 6860 nM.

`COc1ccc(N2CCN(CC(=O)N3CCN(c4nnc(-c5ccc(Cl)cc5)c(-c5ccc(Cl)cc5)n4)CC3)CC2)cc1`: the GI50 was 11500 nM and the TGI is 45500 nM.

As to `CN(C)CCCn1c2c(c3ccncc3c1=O)C(=O)c1ccccc1-2`, the GI50 was 461 nM and the TGI came out at 3020 nM.

As to `COc1ccc(C2CC(c3cccc(Nc4ccnc5cc(Cl)ccc45)c3)=NN2c2ccc(Cl)cc2)cc1` (stereo unspecified), the GI50 is 4450 nM and the TGI amounted to 40300 nM.

For `C=C1C(=O)O[C@H]2[C@H]1CC/C(Cn1cc(CNC(=O)c3cc4ccccc4[nH]3)nn1)=C\CC[C@@]1(C)O[C@@H]21`, the GI50 was 1450 nM and the TGI turned out to be 3660 nM.

As for `Cc1nc2cc(NC(=O)CN3CCN(CCN4C(=O)c5cccc6cccc(c56)C4=O)CC3)ccc2s1`, the GI50 was 3630 nM and the TGI was found to be 16600 nM.

Consider `O=C(/C=C/CN1CCCCC1)Nc1cc2c(Nc3ccc(F)c(Cl)c3F)ncnc2cc1OCCOC(F)F`, for which the GI50 was < 10 nM and the TGI is 11.8 nM.

On to `COc1cc2c(cc1Nc1nc(Nc3ccsc3C(N)=O)c3cc[nH]c3n1)N(C(=O)CN(C)C)CCC2`, for which the GI50 was 82.7 nM and the TGI came out at 947 nM.

As for `Cc1nn(-c2ccccc2)c2ncc3c(c12)C(=O)N(Cc1ccccc1)C3=O`, the GI50 was 9210 nM and the TGI is > 100000 nM.

The values above are taken from PubChem BioAssay (NCI).
